Results published in patent US6953813B1, “2-Aminotetralin derivatives for the therapy of glaucoma” (Chiesi Farmaceutici S.p.A., priority 1999, dated 2005).

Assays:
[1] = system: New-Zealand albino rabbits; test: IOP after single dose in rabbits with water-increased IOP; assay type: in vivo, rabbit; details: two drops of 5% solution per eye, one hour before 200 ml oral water
Procedure: A study versus placebo was carried out in 20 New-Zealand albino rabbits to evaluate the effects of CHF 1035 after single administration. Basal intraocular pressure (IOP) was measured in anaesthetized rabbits in both eyes. Each eye received two drops of physiological solution containing 5% of the drug. Control animals received only physiological solution. After one hour, the animals were administered by oral route with a total amount of 200 ml of distilled water. IOP increased within about one hour and normalized after about 3 hours. As no differences in IOP were observed between the two eyes, the respective tonometric curves were superimposed. IOP measurements were carried out by using a Goldman tonometer and were repeated one hour after the administration of water.
Values are expressed as mean (SE^132 1.6-2.7). The total number of eyes per group is in brackets.

[2] = system: normotensive Dutch Belted rabbits; test: Eye irritation by extent of eyelid closure after topical eyedrop; assay type: in vivo, rabbit; details: single dose 25 μl of 0.5%, 0.2%, 0.05% and 0.01% solution
Procedure: (§1) The experimental animals used were normotensive Dutch Belted rabbits of either gender (n=6). A single drop (25 μl) of the test solution was instilled unilaterally into the left eye (treated eye). IOP of the rabbits (treated and untreated eyes) was measured at 1 and 0 h before, and at 0.5, 1, 2, 3, 4, 5, 6 and 7 h after topical eyedrop administration. IOP at the time of eyedrop administration (0 h) was used as a baseline value. IOP was measured using a BioRad Pneumatonometer. More detailed description of the IOP measurement procedure can be found in Pharm. Res. 14, 1738-1743, 1997 and Curr. Eye Res. 14, 791-797, 1995. All the studies were set up using a randomized crossover design. At least 72 h of wash-out time was allowed for each rabbit between dosings. The irritation caused by an instilled eyedrop were evaluated by recording the extent of eyelid closure after topical eyedrop administration.

[3] = Ocular tolerability; assay type: in vivo
[4] = system: New-Zealand albino rabbits; test: IOP after repeated administration in rabbits with α-chymotrypsin-increased IOP; assay type: in vivo, rabbit; details: two drops of 5% solution per eye every 6 hours
Procedure: The effectiveness of CHF 1035 after repeated administration was tested in a study versus placebo, in 20 New-Zealand albino rabbits. In order to induce a chronic increase of the IOP, each animal was intraocularly injected with 0.5 mg/day of α-chymotrypsin for five days. Starting from the first day of treatment, two drops of physiological saline containing 5% of the drug were instilled in each eye every 6 hours. The control animals only received physiological saline.
The IOP measurement was performed as described in example 1, before the injection and subsequently every day until the 10th day.
FIG. 2 reports the effect of CHF 1035 on rabbit IOP after α-chymotrypsin injection. Values are reported as mean (SE=1.2-2.6; n=20 per group).

[5] = system: normotensive Dutch Belted rabbits; test: Intraocular pressure (IOP) after single dose in normotensive rabbits; assay type: in vivo, rabbit
Procedure: Water (pH 4.5, made isotonic with sodium chloride), was selected as vehicle for the IOP-studies.
Five concentrations (0.01, 0.05, 0.2, 0.5 and 1.0% w/v) of CHF 1035 were studied. Brimonidine (0.2% w/v) was used as a positive, and vehicle (water pH 4.5) as a negative control.
as §1

[6] = topical single dose, normotensive rabbits

## CNC1CCc2c(ccc(OC(=O)C(C)C)c2OC(=O)C(C)C)C1 (racemic) [CHF 1035, (±)-(R,S)-5,6-diisobutyryloxy-2-methylaminotetralin]
[1]
  IOP after water loading versus control animals: IOP value significantly lower than control animals
[2]
  eye irritation (eyelid closure): no eyelid closure was observed
[3]
  concentration up to which well tolerated (no redness, blinking or other side effects): up to 5%
[4]
  tolerability during the whole cycle of treatment: well tolerated during the whole cycle of treatment and induced no eye irritation and/or discomfort
[4]; up to 10th day
  IOP after α-chymotrypsin injection versus placebo: significantly lower IOP than animals treated with placebo
[5]; normotensive rabbits
  duration of action compared with brimonidine: longer duration of action than brimonidine
  effectiveness in decreasing IOP compared with brimonidine: more effective in decreasing IOP than brimonidine
  onset of action: late onset of action
[5]; [6]
  IOP decrease in the untreated eye: no significant IOP decrease is observed in the untreated eye
  effect on IOP in the treated eye: decreases significantly the IOP in the treated eye
[5]; 0.01% w/v, 0 min
  IOP changes (mean ± SEM) in the treated eye: 0.0 ± 0.0 mmHg
  IOP changes (mean ± SEM) in the untreated eye: 0.0 ± 0.0 mmHg
[5]; 0.01% w/v, 30 min
  IOP changes (mean ± SEM) in the treated eye: −1.9 ± 0.9 mmHg
  IOP changes (mean ± SEM) in the untreated eye: −1.0 ± 1.1 mmHg
[5]; 0.01% w/v, 60 min
  IOP changes (mean ± SEM) in the treated eye: −4.2 ± 1.1 mmHg
  IOP changes (mean ± SEM) in the untreated eye: −1.9 ± 1.2 mmHg
[5]; 0.01% w/v, 120 min
  IOP changes (mean ± SEM) in the treated eye: −5.3 ± 0.7 mmHg
  IOP changes (mean ± SEM) in the untreated eye: −1.6 ± 1.0 mmHg
[5]; 0.01% w/v, 180 min
  IOP changes (mean ± SEM) in the treated eye: −5.0 ± 1.0 mmHg
  IOP changes (mean ± SEM) in the untreated eye: −0.5 ± 0.7 mmHg
[5]; 0.01% w/v, 240 min
  IOP changes (mean ± SEM) in the treated eye: −4.5 ± 1.3 mmHg
  IOP changes (mean ± SEM) in the untreated eye: −1.4 ± 0.7 mmHg
[5]; 0.01% w/v, 300 min
  IOP changes (mean ± SEM) in the treated eye: −4.3 ± 0.9 mmHg
  IOP changes (mean ± SEM) in the untreated eye: −1.7 ± 0.4 mmHg
[5]; 0.01% w/v, 360 min
  IOP changes (mean ± SEM) in the treated eye: −2.6 ± 0.6 mmHg
  IOP changes (mean ± SEM) in the untreated eye: 0.0 ± 0.6 mmHg
[5]; 0.01% w/v, 420 min
  IOP changes (mean ± SEM) in the treated eye: −1.3 ± 0.8 mmHg
  IOP changes (mean ± SEM) in the untreated eye: 0.4 ± 0.7 mmHg
[5]; 0.05% w/v, 0 min
  IOP changes (mean ± SEM) in the treated eye: 0.0 ± 0.0 mmHg
  IOP changes (mean ± SEM) in the untreated eye: 0.0 ± 0.0 mmHg
[5]; 0.05% w/v, 30 min
  IOP changes (mean ± SEM) in the treated eye: −0.4 ± 0.5 mmHg
  IOP changes (mean ± SEM) in the untreated eye: 0.0 ± 0.6 mmHg
[5]; 0.05% w/v, 60 min
  IOP changes (mean ± SEM) in the treated eye: −3.3 ± 0.4 mmHg
  IOP changes (mean ± SEM) in the untreated eye: 0.1 ± 0.7 mmHg
[5]; 0.05% w/v, 120 min
  IOP changes (mean ± SEM) in the treated eye: −6.5 ± 0.9 mmHg
  IOP changes (mean ± SEM) in the untreated eye: −1.5 ± 0.8 mmHg
[5]; 0.05% w/v, 180 min
  IOP changes (mean ± SEM) in the treated eye: −6.3 ± 0.9 mmHg
  IOP changes (mean ± SEM) in the untreated eye: −0.4 ± 1.0 mmHg
[5]; 0.05% w/v, 240 min
  IOP changes (mean ± SEM) in the treated eye: −6.7 ± 0.8 mmHg
  IOP changes (mean ± SEM) in the untreated eye: −1.0 ± 0.4 mmHg
[5]; 0.05% w/v, 300 min
  IOP changes (mean ± SEM) in the treated eye: −6.4 ± 0.8 mmHg
  IOP changes (mean ± SEM) in the untreated eye: −1.9 ± 0.9 mmHg
[5]; 0.05% w/v, 360 min
  IOP changes (mean ± SEM) in the treated eye: −5.5 ± 0.7 mmHg
  IOP changes (mean ± SEM) in the untreated eye: −0.6 ± 1.2 mmHg
[5]; 0.05% w/v, 420 min
  IOP changes (mean ± SEM) in the treated eye: −4.3 ± 0.5 mmHg
  IOP changes (mean ± SEM) in the untreated eye: 0.3 ± 0.7 mmHg
[5]; 0.2% w/v, 0 min
  IOP changes (mean ± SEM) in the treated eye: 0.0 ± 0.0 mmHg
  IOP changes (mean ± SEM) in the untreated eye: 0.0 ± 0.0 mmHg
[5]; 0.2% w/v, 30 min
  IOP changes (mean ± SEM) in the treated eye: 0.8 ± 0.9 mmHg
  IOP changes (mean ± SEM) in the untreated eye: 1.0 ± 0.8 mmHg
[5]; 0.2% w/v, 60 min
  IOP changes (mean ± SEM) in the treated eye: −0.4 ± 1.1 mmHg
  IOP changes (mean ± SEM) in the untreated eye: 0.5 ± 1.2 mmHg
[5]; 0.2% w/v, 120 min
  IOP changes (mean ± SEM) in the treated eye: −2.1 ± 0.7 mmHg
  IOP changes (mean ± SEM) in the untreated eye: 0.0 ± 0.9 mmHg
[5]; 0.2% w/v, 180 min
  IOP changes (mean ± SEM) in the treated eye: −6.0 ± 0.9 mmHg
  IOP changes (mean ± SEM) in the untreated eye: −1.5 ± 1.2 mmHg
[5]; 0.2% w/v, 240 min
  IOP changes (mean ± SEM) in the treated eye: −6.3 ± 1.0 mmHg
  IOP changes (mean ± SEM) in the untreated eye: −1.6 ± 1.1 mmHg
[5]; 0.2% w/v, 300 min
  IOP changes (mean ± SEM) in the treated eye: −7.6 ± 1.5 mmHg
  IOP changes (mean ± SEM) in the untreated eye: −1.1 ± 1.1 mmHg
[5]; 0.2% w/v, 360 min
  IOP changes (mean ± SEM) in the treated eye: −6.9 ± 1.0 mmHg
  IOP changes (mean ± SEM) in the untreated eye: −0.7 ± 1.0 mmHg
[5]; 0.2% w/v, 420 min
  IOP changes (mean ± SEM) in the treated eye: −5.7 ± 1.1 mmHg
  IOP changes (mean ± SEM) in the untreated eye: 0.0 ± 0.8 mmHg
[5]; 0.5% w/v, 0 min
  IOP changes (mean ± SEM) in the treated eye: 0.0 ± 0.0 mmHg
  IOP changes (mean ± SEM) in the untreated eye: 0.0 ± 0.0 mmHg
[5]; 0.5% w/v, 30 min
  IOP changes (mean ± SEM) in the treated eye: 1.8 ± 0.6 mmHg
  IOP changes (mean ± SEM) in the untreated eye: 2.9 ± 0.8 mmHg
[5]; 0.5% w/v, 60 min
  IOP changes (mean ± SEM) in the treated eye: 1.2 ± 0.7 mmHg
  IOP changes (mean ± SEM) in the untreated eye: 2.4 ± 0.7 mmHg
[5]; 0.5% w/v, 120 min
  IOP changes (mean ± SEM) in the treated eye: 0.1 ± 0.7 mmHg
  IOP changes (mean ± SEM) in the untreated eye: 1.4 ± 0.4 mmHg
[5]; 0.5% w/v, 180 min
  IOP changes (mean ± SEM) in the treated eye: −5.0 ± 1.2 mmHg
  IOP changes (mean ± SEM) in the untreated eye: 0.0 ± 0.5 mmHg
[5]; 0.5% w/v, 240 min
  IOP changes (mean ± SEM) in the treated eye: −5.6 ± 0.6 mmHg
  IOP changes (mean ± SEM) in the untreated eye: −0.2 ± 0.7 mmHg
[5]; 0.5% w/v, 300 min
  IOP changes (mean ± SEM) in the treated eye: −7.9 ± 0.9 mmHg
  IOP changes (mean ± SEM) in the untreated eye: −0.9 ± 0.4 mmHg
[5]; 0.5% w/v, 360 min
  IOP changes (mean ± SEM) in the treated eye: −6.9 ± 0.8 mmHg
  IOP changes (mean ± SEM) in the untreated eye: −0.7 ± 0.6 mmHg
[5]; 0.5% w/v, 420 min
  IOP changes (mean ± SEM) in the treated eye: −7.0 ± 0.8 mmHg
  IOP changes (mean ± SEM) in the untreated eye: −0.2 ± 0.3 mmHg
[5]; 1.0% w/v, 0 min
  IOP changes (mean ± SEM) in the treated eye: 0.0 ± 0.0 mmHg
  IOP changes (mean ± SEM) in the untreated eye: 0.0 ± 0.0 mmHg
[5]; 1.0% w/v, 30 min
  IOP changes (mean ± SEM) in the treated eye: 1.3 ± 0.9 mmHg
  IOP changes (mean ± SEM) in the untreated eye: 2.2 ± 0.9 mmHg
[5]; 1.0% w/v, 60 min
  IOP changes (mean ± SEM) in the treated eye: 0.4 ± 1.0 mmHg
  IOP changes (mean ± SEM) in the untreated eye: 1.2 ± 1.2 mmHg
[5]; 1.0% w/v, 120 min
  IOP changes (mean ± SEM) in the treated eye: 0.1 ± 0.9 mmHg
  IOP changes (mean ± SEM) in the untreated eye: 1.0 ± 0.8 mmHg
[5]; 1.0% w/v, 180 min
  IOP changes (mean ± SEM) in the treated eye: −3.2 ± 1.8 mmHg
  IOP changes (mean ± SEM) in the untreated eye: −2.5 ± 1.3 mmHg
[5]; 1.0% w/v, 240 min
  IOP changes (mean ± SEM) in the treated eye: −4.9 ± 1.5 mmHg
  IOP changes (mean ± SEM) in the untreated eye: −1.8 ± 0.6 mmHg
[5]; 1.0% w/v, 300 min
  IOP changes (mean ± SEM) in the treated eye: −5.8 ± 1.6 mmHg
  IOP changes (mean ± SEM) in the untreated eye: −0.7 ± 0.8 mmHg
[5]; 1.0% w/v, 360 min
  IOP changes (mean ± SEM) in the treated eye: −6.6 ± 1.6 mmHg
  IOP changes (mean ± SEM) in the untreated eye: −0.2 ± 1.1 mmHg
[5]; 1.0% w/v, 420 min
  IOP changes (mean ± SEM) in the treated eye: −5.3 ± 1.5 mmHg
  IOP changes (mean ± SEM) in the untreated eye: −0.9 ± 1.0 mmHg
